Assay results reported in ChEMBL document CHEMBL3822449, “[Dmt(1)]DALDA analogues modified with tyrosine analogues at position 1” (Bioorg Med Chem Lett, 2016).

How the values were obtained:
[1] = target: Delta-type opioid receptor (Mus musculus, UniProt P32300); test: Agonist activity at delta opioid receptor in albino mouse vas deferens assessed as inhibition of electrically-stimulated muscle contraction; type: tissue-based
[2] = Antioxidant activity assessed as DPPH radical scavenging activity incubated for 30 mins; type: physicochemical; conditions: 0.5 h

Chain of Delta-type opioid receptor (P32300 whole entry): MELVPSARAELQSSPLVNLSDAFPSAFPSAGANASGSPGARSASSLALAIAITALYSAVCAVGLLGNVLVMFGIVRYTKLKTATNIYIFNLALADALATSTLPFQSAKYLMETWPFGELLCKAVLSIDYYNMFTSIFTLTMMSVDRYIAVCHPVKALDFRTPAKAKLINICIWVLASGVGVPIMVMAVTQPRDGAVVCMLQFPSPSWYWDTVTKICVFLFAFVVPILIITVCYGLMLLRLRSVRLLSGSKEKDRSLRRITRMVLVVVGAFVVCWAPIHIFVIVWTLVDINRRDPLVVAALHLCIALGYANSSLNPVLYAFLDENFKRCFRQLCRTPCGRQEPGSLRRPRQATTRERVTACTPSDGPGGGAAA

Row | SMILES | IC50 [1] [nM] | Activity [2] [%]
1 | NCCCC[C@H](NC(=O)[C@H](Cc1ccccc1)NC(=O)[C@@H](CCCN=C(N)N)NC(=O)[C@@H](N)Cc1ccc(O)cc1)C(N)=O | 781 | 
2 | Cc1cc(O)cc(C)c1C[C@H](N)C(=O)N[C@H](CCCNC(=N)N)C(=O)N[C@@H](Cc1ccccc1)C(=O)N[C@@H](CCCCN)C(N)=O |  | 31.64
